Reference: ChEMBL document CHEMBL1130510, “Synthesis and in vitro cytotoxicity of aminocoumarin platinum(II) complexes” (Bioorg Med Chem Lett, 1997)

What was measured:
Caco-2 [1] = experiment: Compound was tested in vitro for its cytotoxic activity against Caco-2T cells in MTT assay and activity is expressed as IC80; type: functional, cell-based; conditions: Homo sapiens
Caco-2 [2] = experiment: Compound was tested in vitro for its cytotoxic activity against Caco-2T cells in MTT assay and activity is expressed as IC50; type: functional, cell-based, Homo sapiens

Substance	IC80 (Caco-2 [1])	IC50 (Caco-2 [2])
7-Amino-4-Trifluoromethyl-Coumarin Platinum (II) Complex [listing 1 of 2 here]	5 µg/mL	
3-Acetamido-6-Aminocoumarin Platinum (II) Complex [listing 1 of 2 here]		80 µg/mL
7-Amino-4-Methyl-Coumarin Platinum (II) Complex [listing 1 of 2 here]	30 µg/mL	
7-Amino-4-Trifluoromethyl-Coumarin Platinum (II) Complex [listing 2 of 2 here]		10 µg/mL
6-Aminocoumarin Platinum (II) Complex	100 µg/mL	
7-Amino-4-Methyl-Coumarin Platinum (II) Complex [listing 2 of 2 here]		100 µg/mL
3-Acetamido-6-Aminocoumarin Platinum (II) Complex [listing 2 of 2 here]	30 µg/mL	
